Assay results taken from ChEMBL document CHEMBL2150926 (J Med Chem, 2011).
Converted amounts (≈) assume the structure as drawn. Blank lines part the entries; values can stand above or below the molecule they belong to.

How the values were obtained:
[1] = target: T1, Protein kinase C epsilon type (Homo sapiens, UniProt Q02156); experiment: Inhibition of PKCepsilon by scintillation proximity assay
T1 sequence (Q02156 whole entry): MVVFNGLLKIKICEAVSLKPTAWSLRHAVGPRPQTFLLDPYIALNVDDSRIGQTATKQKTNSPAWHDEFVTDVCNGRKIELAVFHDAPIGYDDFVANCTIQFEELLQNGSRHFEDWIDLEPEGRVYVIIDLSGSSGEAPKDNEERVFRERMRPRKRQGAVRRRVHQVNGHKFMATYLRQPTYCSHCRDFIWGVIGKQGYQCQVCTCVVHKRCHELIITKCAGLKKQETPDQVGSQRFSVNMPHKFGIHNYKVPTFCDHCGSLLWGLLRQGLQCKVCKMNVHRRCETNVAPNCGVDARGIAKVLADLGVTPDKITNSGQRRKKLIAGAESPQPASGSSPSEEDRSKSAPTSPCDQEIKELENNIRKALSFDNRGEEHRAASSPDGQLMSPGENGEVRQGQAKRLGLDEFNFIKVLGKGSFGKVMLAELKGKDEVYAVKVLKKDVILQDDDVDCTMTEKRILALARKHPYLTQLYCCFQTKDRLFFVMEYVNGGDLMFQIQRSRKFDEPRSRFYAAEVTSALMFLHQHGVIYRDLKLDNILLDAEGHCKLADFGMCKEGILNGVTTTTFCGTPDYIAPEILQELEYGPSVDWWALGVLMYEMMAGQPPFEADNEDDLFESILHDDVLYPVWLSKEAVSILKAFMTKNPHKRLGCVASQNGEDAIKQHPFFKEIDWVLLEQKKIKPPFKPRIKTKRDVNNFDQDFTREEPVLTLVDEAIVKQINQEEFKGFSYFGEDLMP

Jurkat = experiment: Inhibition of human Jurkat cell activation assessed as TCR/CD28 stimulated inhibition of IL-2 secretion; assay type: functional, cell-based
[2] = target: Protein kinase C beta type (Homo sapiens, UniProt P05771); experiment: Inhibition of PKCbeta-1 by scintillation proximity assay
Sequence of Protein kinase C beta type (P05771 whole entry): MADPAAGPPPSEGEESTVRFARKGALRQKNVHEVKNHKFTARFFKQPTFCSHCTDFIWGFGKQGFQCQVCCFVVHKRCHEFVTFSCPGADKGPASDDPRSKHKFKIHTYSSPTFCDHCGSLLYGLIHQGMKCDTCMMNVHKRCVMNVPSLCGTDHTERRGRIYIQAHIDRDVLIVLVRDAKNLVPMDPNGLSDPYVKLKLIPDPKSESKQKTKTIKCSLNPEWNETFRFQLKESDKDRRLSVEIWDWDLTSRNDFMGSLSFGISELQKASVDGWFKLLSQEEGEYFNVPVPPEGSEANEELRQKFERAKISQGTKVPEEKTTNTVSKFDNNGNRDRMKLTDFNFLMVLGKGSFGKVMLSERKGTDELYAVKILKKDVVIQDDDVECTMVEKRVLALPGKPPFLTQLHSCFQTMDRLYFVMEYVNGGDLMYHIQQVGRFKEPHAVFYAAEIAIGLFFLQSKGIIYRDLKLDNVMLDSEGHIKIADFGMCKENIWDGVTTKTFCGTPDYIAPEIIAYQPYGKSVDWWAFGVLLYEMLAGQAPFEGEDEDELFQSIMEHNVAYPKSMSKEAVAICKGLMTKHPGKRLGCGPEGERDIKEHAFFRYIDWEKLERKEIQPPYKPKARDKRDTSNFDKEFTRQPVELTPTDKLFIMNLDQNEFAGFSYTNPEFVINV

[3] = target: Protein kinase C eta type (Homo sapiens, UniProt P24723); experiment: Inhibition of PKCeta by scintillation proximity assay
Sequence of Protein kinase C eta type (P24723 whole entry): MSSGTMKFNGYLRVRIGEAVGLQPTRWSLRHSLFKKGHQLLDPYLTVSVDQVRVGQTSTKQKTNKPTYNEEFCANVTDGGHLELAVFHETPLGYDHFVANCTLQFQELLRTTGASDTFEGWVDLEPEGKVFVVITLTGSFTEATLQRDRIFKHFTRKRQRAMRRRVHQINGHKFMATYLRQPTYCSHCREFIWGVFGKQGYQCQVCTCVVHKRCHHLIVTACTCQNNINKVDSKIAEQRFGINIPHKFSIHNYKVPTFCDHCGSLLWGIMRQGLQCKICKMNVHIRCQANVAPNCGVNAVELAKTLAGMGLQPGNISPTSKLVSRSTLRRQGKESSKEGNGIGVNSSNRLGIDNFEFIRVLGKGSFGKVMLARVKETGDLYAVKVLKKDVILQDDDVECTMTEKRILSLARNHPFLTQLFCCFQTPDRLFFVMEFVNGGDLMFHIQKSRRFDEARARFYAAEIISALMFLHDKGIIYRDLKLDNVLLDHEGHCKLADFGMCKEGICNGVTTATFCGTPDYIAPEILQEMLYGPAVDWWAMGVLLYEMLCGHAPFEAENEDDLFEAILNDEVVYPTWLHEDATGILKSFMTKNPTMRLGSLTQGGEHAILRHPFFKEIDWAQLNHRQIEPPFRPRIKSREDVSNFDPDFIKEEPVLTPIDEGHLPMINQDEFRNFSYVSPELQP

[4] = target: Protein kinase C theta type (Homo sapiens, UniProt Q04759); experiment: Inhibition of PKCtheta by scintillation proximity assay
Sequence of Protein kinase C theta type (Q04759 whole entry): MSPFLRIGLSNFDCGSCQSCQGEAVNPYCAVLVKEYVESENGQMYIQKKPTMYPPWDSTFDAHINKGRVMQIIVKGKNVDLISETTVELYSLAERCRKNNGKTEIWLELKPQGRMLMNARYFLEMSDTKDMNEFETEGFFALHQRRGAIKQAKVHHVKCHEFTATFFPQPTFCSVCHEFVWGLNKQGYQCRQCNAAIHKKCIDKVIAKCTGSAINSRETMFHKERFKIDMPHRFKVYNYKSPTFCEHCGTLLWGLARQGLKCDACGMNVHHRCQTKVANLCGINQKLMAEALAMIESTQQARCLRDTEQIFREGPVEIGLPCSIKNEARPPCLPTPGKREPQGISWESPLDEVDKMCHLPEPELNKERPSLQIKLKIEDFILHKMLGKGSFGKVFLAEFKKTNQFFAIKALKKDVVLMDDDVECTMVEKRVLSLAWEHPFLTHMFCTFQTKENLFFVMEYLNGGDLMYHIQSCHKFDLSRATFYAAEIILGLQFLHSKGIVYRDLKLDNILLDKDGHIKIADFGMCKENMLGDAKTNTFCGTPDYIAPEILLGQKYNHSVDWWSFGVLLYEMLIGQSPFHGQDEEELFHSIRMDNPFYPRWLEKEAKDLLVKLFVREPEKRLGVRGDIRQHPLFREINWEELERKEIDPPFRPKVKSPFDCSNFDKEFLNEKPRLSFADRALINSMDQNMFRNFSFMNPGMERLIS

[5] = target: Protein kinase C alpha type (Homo sapiens, UniProt P17252); experiment: Inhibition of PKCalpha by scintillation proximity assay
[6] = target: Protein kinase C delta type (Homo sapiens, UniProt Q05655); experiment: Inhibition of PKCdelta by scintillation proximity assay
Sequence of Protein kinase C delta type (Q05655 whole entry): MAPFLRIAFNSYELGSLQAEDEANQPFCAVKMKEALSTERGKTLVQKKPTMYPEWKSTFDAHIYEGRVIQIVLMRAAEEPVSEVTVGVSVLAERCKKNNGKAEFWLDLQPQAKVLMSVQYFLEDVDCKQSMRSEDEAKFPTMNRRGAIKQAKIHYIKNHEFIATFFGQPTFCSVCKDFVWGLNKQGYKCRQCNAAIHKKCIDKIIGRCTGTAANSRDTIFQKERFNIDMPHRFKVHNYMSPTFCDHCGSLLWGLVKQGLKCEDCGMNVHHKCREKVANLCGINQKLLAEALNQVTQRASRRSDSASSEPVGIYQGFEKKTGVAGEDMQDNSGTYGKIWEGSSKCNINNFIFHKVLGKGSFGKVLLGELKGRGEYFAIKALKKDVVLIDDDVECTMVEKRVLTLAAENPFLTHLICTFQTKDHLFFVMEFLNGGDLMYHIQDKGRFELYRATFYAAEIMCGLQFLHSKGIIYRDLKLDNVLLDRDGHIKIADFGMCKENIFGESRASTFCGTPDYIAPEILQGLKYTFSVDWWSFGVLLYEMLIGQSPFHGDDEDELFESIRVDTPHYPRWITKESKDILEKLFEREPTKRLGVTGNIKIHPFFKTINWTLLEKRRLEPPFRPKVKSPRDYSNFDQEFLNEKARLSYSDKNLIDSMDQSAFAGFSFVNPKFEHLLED

[7] = Immunosuppressive activity in mouse lymphocytes assessed as alloantigen-induced T cell proliferation by mixed lymphocyte reaction assay; assay type: functional, cell-based
[8] = Immunosuppressive activity in human lymphocytes assessed as alloantigen-induced T cell proliferation by mixed lymphocyte reaction assay; assay type: functional, cell-based
[9] = AUC (0 to 24 hrs) in Wistar rat mesenteric lymph node at 30 mg/kg, po administered as single dose; assay type: ADME, organism-based; set-up: time < 24 hr, dose 30 mg/kg, route oral; conditions: in vivo
[10] = Intrinsic clearance in Balb/c mouse liver microsomes at 30 mg/kg, po; assay type: ADME, Microsome; set-up: dose 30 mg/kg, route oral; conditions: read-out: CLH
Mus musculus [11] = experiment: Dose normalized AUC (0 to infinity) in Balb/c mouse at 30 mg/kg, po; assay type: ADME, organism-based; set-up: dose 30 mg/kg, route oral; conditions: in vivo
[12] = Oral bioavailability in Balb/c mouse at 30 mg/kg; assay type: ADME, organism-based; conditions: in vivo
Thymus = experiment: AUC (0 to 24 hrs) in Wistar rat thymus at 30 mg/kg, po administered as single dose; assay type: ADME, organism-based; set-up: time < 24 hr, dose 30 mg/kg, route oral; conditions: in vivo
[13] = Solubility of the compound in simulated gastric fluid at pH 2.0; assay type: physicochemical
[14] = Fraction unbound in cynomolgus monkey plasma at 20 mg/kg, po; assay type: ADME, organism-based, Macaca fascicularis; set-up: dose 20 mg/kg, route oral
[15] = Tmax in Balb/c mouse at 30 mg/kg, po; assay type: ADME, organism-based; set-up: dose 30 mg/kg, route oral; conditions: in vivo
[16] = Solubility of the compound in fasted state simulated intestinal fluid at pH 6.5; assay type: physicochemical
Rattus norvegicus [17] = experiment: Dose normalized AUC (0 to infinity) in OFA rat at 5 mg/kg, iv; assay type: ADME, organism-based; set-up: dose 5 mg/kg, route intravenous; conditions: in vivo
[18] = Fraction unbound in OFA rat plasma at 20 mg/kg, po; assay type: ADME, organism-based; set-up: dose 20 mg/kg, route oral
[19] = Total plasma clearance in Balb/c mouse at 5 mg/kg, iv; assay type: ADME, organism-based; set-up: dose 5 mg/kg, route intravenous
[20] = Intrinsic clearance in OFA rat liver microsomes at 20 mg/kg, po; assay type: ADME, Microsome; set-up: dose 20 mg/kg, route oral; conditions: read-out: CLH
Rattus norvegicus [21] = experiment: AUC (0 to 24 hrs) in Wistar rat at 30 mg/kg, po administered as single dose; assay type: ADME, organism-based, Plasma; set-up: time < 24 hr, dose 30 mg/kg, route oral; conditions: in vivo
Spleen = experiment: AUC (0 to 24 hrs) in Wistar rat spleen at 30 mg/kg, po administered as single dose; assay type: ADME, organism-based; set-up: time < 24 hr, dose 30 mg/kg, route oral; conditions: in vivo
[22] = Lipophilicity, log D of the compound at pH 6.8; assay type: physicochemical; conditions: buffer
[23] = Solubility of the compound in fed state simulated intestinal fluid at pH 5.8; assay type: physicochemical
Mus musculus [24] = experiment: Dose normalized AUC (0 to infinity) in Balb/c mouse at 5 mg/kg, iv; assay type: ADME, organism-based; set-up: dose 5 mg/kg, route intravenous; conditions: in vivo
[25] = Octanol-water partition coefficient, log P of the compound; assay type: physicochemical
Rattus norvegicus [26] = experiment: Dose normalized AUC (0 to infinity) in OFA rat 20 mg/kg, po; assay type: ADME, organism-based; set-up: dose 20 mg/kg, route oral; conditions: in vivo
[27] = Volume of distribution at steady state in Balb/c mouse at 5 mg/kg, iv; assay type: ADME, organism-based; set-up: dose 5 mg/kg, route intravenous; conditions: in vivo, read-out: Vdss
Cynomolgus monkey [28] = experiment: Dose normalized AUC (0 to infinity) in cynomolgus monkey at 20 mg/kg, po; assay type: ADME, organism-based, Macaca fascicularis; set-up: dose 20 mg/kg, route oral; conditions: in vivo
[29] = Total plasma clearance in cynomolgus monkey at 5 mg/kg, iv; assay type: ADME, organism-based, Macaca fascicularis; set-up: dose 5 mg/kg, route intravenous
[30] = Elimination half life in Balb/c mouse at 5 mg/kg, iv; assay type: ADME, organism-based; set-up: dose 5 mg/kg, route intravenous; conditions: in vivo, read-out: beta t1/2 (converted)
[31] = Elimination half life in cynomolgus monkey at 5 mg/kg, iv; assay type: ADME, organism-based, Macaca fascicularis; set-up: dose 5 mg/kg, route intravenous; conditions: in vivo, read-out: beta t1/2 (converted)
[32] = Oral bioavailability in cynomolgus monkey at 20 mg/kg; assay type: ADME, organism-based, Macaca fascicularis; conditions: in vivo
Cynomolgus monkey [33] = experiment: Dose normalized AUC (0 to infinity) in cynomolgus monkey at 5 mg/kg, iv; assay type: ADME, organism-based, Macaca fascicularis; set-up: dose 5 mg/kg, route intravenous; conditions: in vivo
Mus musculus [34] = experiment: Drug metabolism in po dosed Balb/c mouse assessed as 3-(1H-Indol-3-yl)-4-(2-piperazin-1-yl-quinazolin-4-yl)pyrrole-2,5-dione level relative to parent compound; assay type: ADME, organism-based; conditions: in vivo
[35] = Tmax in cynomolgus monkey at 20 mg/kg, po; assay type: ADME, organism-based, Macaca fascicularis; set-up: dose 20 mg/kg, route oral; conditions: in vivo
[36] = Volume of distribution at steady state in cynomolgus monkey at 5 mg/kg, iv; assay type: ADME, organism-based, Macaca fascicularis; set-up: dose 5 mg/kg, route intravenous; conditions: in vivo, read-out: Vdss
[37] = Intrinsic clearance in cynomolgus monkey liver microsomes at 20 mg/kg, po; assay type: ADME, Macaca fascicularis, Microsome; set-up: dose 20 mg/kg, route oral; conditions: read-out: CLH
Cytochrome P450 3A4 = Cytochrome P450 3A4 (Homo sapiens, UniProt P08684); experiment: Inhibition of CYP3A4-catalyzed midazolam 1'-hydroxylation in human liver microsomes; assay type: ADME, Microsome
Sequence of Cytochrome P450 3A4 (P08684 whole entry): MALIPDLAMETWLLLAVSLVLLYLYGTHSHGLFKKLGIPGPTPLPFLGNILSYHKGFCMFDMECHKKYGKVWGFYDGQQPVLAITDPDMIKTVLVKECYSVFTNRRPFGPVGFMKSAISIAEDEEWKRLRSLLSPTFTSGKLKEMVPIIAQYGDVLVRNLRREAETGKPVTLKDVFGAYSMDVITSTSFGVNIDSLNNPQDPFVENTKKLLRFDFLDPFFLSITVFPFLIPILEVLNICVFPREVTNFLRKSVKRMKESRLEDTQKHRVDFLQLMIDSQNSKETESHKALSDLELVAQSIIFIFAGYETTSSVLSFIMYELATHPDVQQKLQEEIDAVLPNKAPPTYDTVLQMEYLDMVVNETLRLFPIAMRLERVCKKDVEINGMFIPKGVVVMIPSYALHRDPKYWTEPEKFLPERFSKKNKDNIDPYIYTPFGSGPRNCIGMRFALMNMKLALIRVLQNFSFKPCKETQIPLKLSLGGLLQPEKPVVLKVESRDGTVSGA

[38] = Apparent permeability in human Caco2 cells; assay type: ADME, cell-based; conditions: Caco-2
[39] = Intrinsic solubility of the compound at pH 6.8; assay type: physicochemical; conditions: buffer, read-out: Intrinsic_solubility

- IC50 [1]: 72 nM
- IC50 (Jurkat): 79 nM
- IC50 [2]: 5.2 nM
- IC50 [3]: 118 nM
- IC50 [4]: 31 nM
- IC50 [5]: 3.6 nM
- IC50 [6]: 27 nM
Compound: CN1CCN(c2cc(C3=C(c4c[nH]c5ccccc45)C(=O)NC3=O)c3ccccc3n2)CC1
- IC50 [7]: 575 nM

- IC50 [1]: 4.3 nM
- IC50 (Jurkat): 23 nM
- IC50 [2]: 2 nM
- IC50 [3]: 6.2 nM
- IC50 [4]: 2.1 nM
- IC50 [5]: 1.4 nM
- IC50 [6]: 1.8 nM
Compound: CN1CCN(c2cc3ccccc3c(C3=C(c4c[nH]c5ccccc45)C(=O)NC3=O)n2)CC1
- IC50 [7]: 73 nM
- IC50 [8]: 37 nM

Compound: CN1CCN(c2cc(C3=C(c4c[nH]c5ccccc45)C(=O)NC3=O)c3ccccc3c2)CC1
- IC50 [7]: 123 nM
- IC50 [8]: 25 nM

- AUC [9]: 20478 ng·h/g
- microsomal CLint [10]: 248 µL/min/mg
- AUC/dose (Mus musculus [11]): 72 ng·h/mL
- bioavailability [12]: 19%
- AUC (Thymus): 12644 ng·h/g
- solubility [13]: 780 µg/mL (≈ 1780 µM)
- fraction unbound [14]: 0.024
- Tmax [15]: 30 min
- solubility [16]: 410 µg/mL (≈ 935 µM)
- AUC/dose (Rattus norvegicus [17]): 326 ng·h/mL
- fraction unbound [18]: 0.011
- clearance [19]: 45 mL/min/kg
- microsomal CLint [20]: 505 µL/min/mg
- AUC (Rattus norvegicus [21]): 1952 ng·h/g
- AUC (Spleen): 30887 ng·h/g
- logD [22]: 2.4
- solubility [23]: 530 µg/mL (≈ 1210 µM)
- AUC/dose (Mus musculus [24]): 371 ng·h/mL
- logP [25]: 2.9
- AUC/dose (Rattus norvegicus [26]): 110 ng·h/mL
- Vd [27]: 3.1 L/kg
- AUC/dose (Cynomolgus monkey [28]): 128 ng·h/mL
- clearance [29]: 23 mL/min/kg
- half-life [30]: 150 min
- half-life [31]: 288 min
- bioavailability [32]: 18%
- AUC/dose (Cynomolgus monkey [33]): 720 ng·h/mL
- fold change (FC) (Mus musculus [34]): 2
- Tmax [35]: 8 h
- Vd [36]: 5.9 L/kg
- microsomal CLint [37]: 433 µL/min/mg
- Ki (Cytochrome P450 3A4): 2900 nM
- Papp [38]: 4.5 ×10⁻⁶ cm/s
- solubility [39]: 19 µg/mL (≈ 43.3 µM)
Compound: CN1CCN(c2nc(C3=C(c4c[nH]c5ccccc45)C(=O)NC3=O)c3ccccc3n2)CC1 [SOTRASTAURIN]
- IC50 [7]: 150 nM
- IC50 [8]: 37 nM
